Paper PMC5559473, “Screening of TB Actives for Activity against Nontuberculous Mycobacteria Delivers High Hit Rates” (Frontiers in Microbiology, 2017)
≈ marks a conversion by molar mass, not a printed value. Where “and” joins values, the source holds several entries; their conditions need not be identical. Identical values can stand only once. Like-named read-outs stand apart in the source and are kept apart here.

What was measured:
M. abscessus = details: cited from earlier work
M. avium = details: cited from earlier work
M. abscessus Bamboo [1] = test: Single point growth inhibition screening assay; assay type: cell-based, Mycobacterium abscessus; details: 20 μM, 3 days
M. avium 11 [2] = test: Single point growth inhibition screening assay; assay type: cell-based, Mycobacterium avium; details: M. avium 11, 20 μM, 4 days
M. abscessus Bamboo [3] = test: Dose-response growth inhibition (broth microdilution); assay type: cell-based, Mycobacterium abscessus; details: Mycobacteroides abscessus, 72 h, M. abscessus Bamboo, 3 days
M. avium 11 [4] = test: as above; assay type: cell-based, Mycobacterium avium; details: Mycobacterium avium, 96 h, M. avium 11, 4 days
M. abscessus Bamboo [5] = test: Bactericidal assay (CFU, fold kill); assay type: cell-based, Mycobacterium abscessus; details: 10^7 CFU/mL exposed to MIC90 for 3 days, CFU vs starting inoculum
M. avium 11 [6] = test: Bactericidal assay (CFU, fold kill); assay type: cell-based, Mycobacterium avium; details: 10^7 CFU/mL exposed to MIC90 for 4 days, CFU vs starting inoculum
[7] = ref Brown-Elliott et al., 2003, Cavusoglu et al., 2007, Aziz et al., 2017

CC(C)=CCC/C(C)=C/CNCCNC1C2CC3CC(C2)CC1C3 (stereo not drawn) [SQ109]
MIC (M. abscessus; ref Sacksteder et al., 2012): 4–16 mg/L and 12–48 μM
MIC (M. avium; ref Sacksteder et al., 2012): 4–16 mg/L and 12–48 μM

COc1nc2ccc(Br)cc2cc1[C@@H](c1ccccc1)[C@@](O)(CCN(C)C)c1cccc2ccccc12 [bedaquiline]
Activity in primary screen (hit = equal or more than 80% growth inhibition) (M. abscessus Bamboo [1]): showed activity
Activity in primary screen (hit = equal or more than 80% growth inhibition) (M. avium 11 [2]): showed activity

CC[C@H]1OC(=O)[C@H](C)[C@@H](O[C@H]2C[C@@](C)(OC)[C@@H](O)[C@H](C)O2)[C@H](C)[C@@H](O[C@@H]2O[C@H](C)C[C@H](N(C)C)[C@H]2O)[C@](C)(OC)C[C@@H](C)C(=O)[C@H](C)[C@@H](O)[C@]1(C)O [clarithromycin, reference compound]
MIC50 (M. abscessus Bamboo [3]; read-out: MIC50): < 0.2 µM
MIC90 (M. abscessus Bamboo [3]; read-out: MIC90): 0.5 µM (≈ 0.374 µg/mL)
MIC50 (M. avium 11 [4]; read-out: MIC50): < 0.2 µM
MIC90 (M. avium 11 [4]; read-out: MIC90): 0.6 µM (≈ 0.449 µg/mL)
Fold kill at MIC90 (M. abscessus Bamboo [5]): NK (NK, “no kill,” i.e., CFU reduction < 10-fold at MIC90)
Fold kill at MIC90 (M. avium 11 [6]): NK (NK, “no kill,” i.e., CFU reduction < 10-fold at MIC90)
Concentration required to reduce CFU 10-fold, relative to MIC90 (M. abscessus; ref Aziz et al., 2017): up to 100 times
Concentration required to reduce CFU 10-fold, relative to MIC90 (M. avium; ref Heifets et al., 1992): up to 64 times

C[C@H]1COc2c(N3CCN(C)CC3)c(F)cc3c(=O)c(C(=O)O)cn1c23 [levofloxacin]
Activity in primary screen (hit = equal or more than 80% growth inhibition) (M. abscessus Bamboo [1]): showed activity
Activity in primary screen (hit = equal or more than 80% growth inhibition) (M. avium 11 [2]): showed activity

CC(=O)NC[C@H]1CN(c2ccc(N3CCOCC3)c(F)c2)C(=O)O1 [linezolid]
MIC90 (M. abscessus; [7]): 36 µM (≈ 12.1 µg/mL)
MIC90 (M. avium; [7]): 22 µM (≈ 7.42 µg/mL)

CO[C@H]1/C=C/O[C@@]2(C)Oc3c(C)c(O)c4c(O)c(c(/C=N/N5CCN(C)CC5)c(O)c4c3C2=O)NC(=O)/C(C)=C\C=C\[C@H](C)[C@H](O)[C@@H](C)[C@@H](O)[C@@H](C)[C@H](OC(C)=O)[C@@H]1C [rifampicin]
Activity in primary screen (hit = equal or more than 80% growth inhibition) (M. avium 11 [2]): M. avium-specific hits
MIC (M. abscessus; ref Aziz et al., 2017): ≥ 37 µM
